Measurements as given in patent publication US10323001B2, “Compositions for modulating a kinase cascade and methods of use thereof” (Athenex, Inc., priority 2006, dated 2019).
Where a name gives a salt, the structure may show the parent alone.

Assays:
[1] = Threshold solubility of salt screen 96 well plate; conditions: salt screen well: 1 Equivalent of Acid, DI water
Protocol: Following each addition, the plate was shaken to encourage mixing for at least 5 minutes prior to evaluation.

[2] = Moisture-sorption analysis (Hiden IGAsorp); assay type: physicochemical; conditions: for Moisture Sorption Wt % Water @ 90% RH: mesylate
Protocol: Moisture-sorption experiments were performed using a Hiden IGAsorp Moisture Sorption instrument on KX2-391.MSA obtained in accordance with the process of the present invention (Example 4). First, the sample was dried at 0% Relative Humidity (RH) and 25° C. until an equilibrium weight was reached or for a maximum of four hours. The sample was then subjected to an isothermal (25° C.) adsorption scan from 10 to 90% RH in steps of 10%. The sample was allowed to equilibrate to an asymptotic weight at each point for a maximum of four hours. Following adsorption, a desorption scan from 85 to 0% RH (at 25° C.) was run in steps of −10% again allowing a maximum of four hours for equilibration to an asymptotic weight. The sample was then dried for one hour at 80° C. and the resulting solid analyzed by XRPD. […] FIG. 10 depicts percent change of water content as a function of relative humidity for KX2-391.MSA, Form A.
Moisture-sorption experiments were performed using a Hiden IGAsorp Moisture Sorption Instrument on KX2-391.2HCl obtained in accordance with the process of the present invention (Example 3). First, the sample was dried at 0% Relative Humidity (RH) and 25° C. until an equilibrium weight was reached or for a maximum of four hours. The sample was then subjected to an isothermal (25° C.) adsorption scan from 10 to 90% RH in steps of 10%. The sample was allowed to equilibrate to an asymptotic weight at each point for a maximum of four hours. Following adsorption, a desorption scan from 85 to 0% RH (at 25° C.) was run in steps of −10% again allowing a maximum of four hours for equilibration to an asymptotic weight. The sample was then dried for one hour at 80° C. and the resulting solid analyzed by XRPD.

[3] = Stability studies, 2 weeks at elevated temperature and/or relative humidity; assay type: physicochemical; conditions: for Form After 2 Weeks (XRPD): initial Form A; for Time to deliquescence: 95% RH, mesylate
Protocol: Stability studies were performed on KX2-391.MSA obtained in accordance with the process of the present invention (Example 4) using the conditions listed in Table 4 to determine the effects of exposure to elevated temperature and/or relative humidity on the crystalline form of KX2-391.MSA, Form A. After 2 weeks, the samples were analyzed by XRPD and HPLC to determine if any form change or degradation had occurred.

[4] = Thermal stress; assay type: physicochemical; conditions: 60° C., one week
Protocol: Thermal stress experiments were performed on KX2-391.MSA, Form A. Each 1-dram amber vial was filled with approximately 20 mg of KX2-391.MSA, Form A capped and stored in a vacuum over at 60° C. for one week. The resulting solids were analyzed by XRPD and HPLC.

[5] = Slurry studies, 2 weeks at ambient conditions; assay type: physicochemical; conditions: for Form After 2 Weeks (XRPD): initial Form A
Excerpt: After 2 weeks slurry at ambient conditions, the solids were isolated and analyzed by XRPD and HPLC. No additional forms were observed by XRPD.

[6] = 5 mg/mL DI water dissolution experiment; assay type: physicochemical; set-up: key to dissolution state: P—Particulates partially dissolved; D—Particulates fully dissolved; conditions: about 5 mg in 1 mL DI water, magnetic stirring
Protocol: Dissolution experiments were performed on KX2-391 salts to provide a better understanding of the salts interaction in water. This was accomplished using a 5 mg/mL DI water dissolution experiment where 5 mg of each salt was weighed into a vial and 1 mL of DI wather was added. The solution was monitored visually with magnetic stirring over a 20 minute time period to observe the time of dissolution.

[7] = Aqueous solubility study in buffers at 37° C.; assay type: physicochemical; conditions: overnight at 37° C.; for solubility: thermodynamic from solid
Protocol: The solubility of KX2-391 mesylate, Form A was determined in SGF (pH 2), acetate buffer (pH 4.5), and phosphate buffer (pH 7.2). Slurries of KX2-391 mesylate in the buffer solution were allowed to equilibrate overnight at 37° C. The solids were then isolated and the supernatant was diluted and analyzed by HPLC. The response of the supernatant was then compared against a calibration curve to determine the solubility.

[8] = Pressure and grinding studies; assay type: physicochemical
[9] = Slurry study (acetone, DI water); assay type: physicochemical; conditions: Acetone slurry/RT, one and five days
Protocol: Slurry experiments were performed using acetone and DI water on KX2-391.MSA, Form A. Each vial was filled with approximately 30 mg of KX2-391.MSA, Form A and 0.5 and 1 mL of corresponding solvent, followed by stirring at room temperature for one and five days. The obtained solids were isolated by filtration, dried under vacuum at room temperature, and analyzed by HPLC and XRPD. The initial purity of KX2-391.MSA was 99.4%.

[10] = 40° C./75% RH, accelerated stability chamber
[11] = slurry in Dioxane:water (~0.9:0.1)

Threshold solubility rank ([1]; Acetone): 1
Threshold solubility rank ([1]; Dioxane): 1
Threshold solubility rank ([1]; THF): 1
hygroscopicity by moisture sorption analysis ([2]; 25° C., adsorption scan 10 to 90% RH): slightly-hygroscopic
water absorbed at 60% RH ([2]; 60% RH, 25° C.): 1.1 wt %
Moisture Sorption Wt % Water @ 90% RH ([2]; 25° C., listed as MSA): 5.7 wt %
Moisture Sorption Wt % Water @ 90% RH ([2]; 25° C.): 5.7 wt %
XRPD pattern of material resulting from the moisture sorption experiment ([2]; after adsorption/desorption scans and drying one hour at 80° C.): consistent with the starting form
stability of crystalline form after exposure to the accelerated stability conditions ([3]; 2 weeks, conditions of Table 4): stable crystalline form
HPLC Purity (AUC) after 2 weeks [3, 10]: >99%
Form After 2 Weeks (XRPD) [3, 10]: Form A
HPLC Purity (AUC) after 2 weeks ([3]; 51% RH, saturated salt chamber): >99%
Form After 2 Weeks (XRPD) ([3]; 51% RH, saturated salt chamber): Form A
HPLC Purity (AUC) after 2 weeks ([3]; 60° C./ambient humidity, oven): >99%
Form After 2 Weeks (XRPD) ([3]; 60° C./ambient humidity, oven): Form A
HPLC Purity (AUC) after 2 weeks ([3]; 75% RH, saturated salt chamber): >99%
Form After 2 Weeks (XRPD) ([3]; 75% RH, saturated salt chamber): Form A
HPLC Purity (AUC) after 2 weeks ([3]; 88% RH, saturated salt chamber): >99%
Form After 2 Weeks (XRPD) ([3]; 88% RH, saturated salt chamber): Form A
Time to deliquescence ([3]; saturated salt chamber, listed as KX2-391-MSA): quesced <16 hrs
Time to deliquescence ([3]; saturated salt chamber): less than 16 hrs
HPLC purity after thermal stress [4]: 99.3%
HPLC Purity (AUC) after 2 weeks slurry ([5]; slurry in 1-butanol): >99%
Form After 2 Weeks (XRPD) ([5]; slurry in 1-butanol): Form A
HPLC Purity (AUC) after 2 weeks slurry [5, 11]: >99%
Form After 2 Weeks (XRPD) [5, 11]: Form A
HPLC Purity (AUC) after 2 weeks slurry ([5]; slurry in IPA): >99%
Form After 2 Weeks (XRPD) ([5]; slurry in IPA): Form A
HPLC Purity (AUC) after 2 weeks slurry ([5]; slurry in MeCN): >99%
Form After 2 Weeks (XRPD) ([5]; slurry in MeCN): Form A
HPLC Purity (AUC) after 2 weeks slurry ([5]; slurry in THF:water (~0.9:0.1)): >99%
Form After 2 Weeks (XRPD) ([5]; slurry in THF:water (~0.9:0.1)): Form A
dissolution state ([6]; 0 s): P
dissolution state ([6]; 30 s): P
dissolution state ([6]; 1 min): D
pH after slurry ([7]; SGF (pH 2.0)): 4.5
pH after slurry ([7]; acetate (pH 4.5)): 4.4
solubility ([7]; acetate buffer, aqueous buffer, acetate (pH 4.5)): 737 mg/mL
pH after slurry ([7]; phosphate (pH 7.2)): 4.3
solubility ([7]; phosphate buffer, aqueous buffer, phosphate (pH 7.2)): 150 mg/mL
solubility ([7]; simulated gastric fluid, SGF (pH 2.0)): 700 mg/mL
HPLC purity after slurry ([9]; initial 99.4%): 99.3%
Structure (SMILES): O=C(Cc1ccc(-c2ccc(OCCN3CCOCC3)cc2)cn1)NCc1ccccc1 [KX2-391.MSA, 2-(5-(4-(2-morpholinoethoxy)phenyl)pyridine-2-yl)-N-benzylacetamide mesylate]
XRPD of solid after thermal stress [4]: consistent with the pattern of the initial KX2-391.MSA, Form A
effect of physical stress on the crystalline form [8]: No change in crystalline form was observed
XRPD of solid after slurry [9]: consistent with the pattern of the initial KX2-391.MSA, Form A
